These results are taken from article PMC11356571, “The Comparative Metabolism of a Novel Hepatocellular Carcinoma Therapeutic Agent, 2,3-Diamino-N-(4-(benzo[d]thiazol-2-yl)phenyl)propanamide, in Human and Animal Hepatocytes” (Metabolites, 2024).

The data set can be described thus: Metabolic stability in monkey hepatocytes. The class given is in vitro ADME. The conditions noted are these: cryopreserved hepatocytes. The protocol: Cryopreserved hepatocytes were carefully thawed in a 37 °C water bath for approximately 1 min, and transferred to a tube containing pre-warmed thawing medium. The supernatants were removed and the pellets were resuspended in KHB at a final cell density of 1 × 10^6 cells/mL, based on hemocytometer counting using trypan blue exclusion. A ETN101 solution was prepared by dissolving ETN101 in water at 4 mM and diluted by KHB at the concentration of 4 μM of ETN101. Sixty microliters each of hepatocyte suspensions and 4 μM of ETN101 were added in a 96-well plate and incubated for 0, 5, 15, 30, and 45 min at 37 °C in a CO2 incubator. All incubations were conducted in triplicates. Reactions were terminated by the addition of 120 μL of ice-cold acetonitrile and followed by vortex mixing. After centrifugation at 13,000 rpm for 8 min at 4 °C, 5 μL of internal standard (IS, camptothecin in acetonitrile at 780 ng/mL) was added to 60 μL of supernatant. A 2 μL aliquot was injected into the LC-MS/MS system. The reliability of the analysis was confirmed by incorporating three different levels of quality control samples at the beginning and end of each analytical batch. The disappearance rate (k) of ETN101 was calculated by determined peak area ratio of ETN101 to IS over incubation period. Subsequently, half-life (t1/2), intrinsic clearance (Clint), and intrinsic hepatic clearance (Clint,hep) of ETN101 in human and animal hepatocytes were calculated using the following equation [34]: t1/2(min)=ln2/−k(elimination slope) ClintμL/min/10^6 cells=ln2/t1/2×μL incubation/hepatocytes (10^6 cells) Clint,hepmL/min/kg=Clint/1000×A×10^6 cells/g liver×B g liver/kg body weight […]
For the metabolic stability assay, an LC-MS/MS system was employed, consisting of an Agilent 1260 series HPLC system (Agilent Technologies Inc., Santa Clara, CA, USA) coupled to an API 4000 mass spectrometer (AB SCIEX, Concord, Vaughan, ON, Canada) equipped with a turbo electrospray interface. […] ETN101 and IS were detected using multiple reaction monitoring (MRM) mode under positive electrospray ionization (ESI). […]

In general, half-life refers to the time needed for the level to fall by half in the phase considered. By hepatocyte CLint is commonly meant the rate of metabolic loss divided by the concentration. For orientation: CLint scaled means a measure of how fast metabolising enzymes remove a compound, apart from limits set by blood flow. Under “45 min incubation at 37 °C”, `NCC(N)C(=O)Nc1ccc(-c2nc3ccccc3s2)cc1` (stereo not drawn) [ETN101, 2,3-diamino-N-(4-(benzo[d]thiazol-2-yl)phenyl)propanamide] had a half-life at 2 µM of 1.22 h and a hepatocyte CLint at 2 µM of 19 µL/min/1e6 cells. The compound further had a CLint scaled at 2 µM (scaled from Clint) of 2.74 L/h/kg.
